Results on 6 substances are retold here after US8273337B2, “Hair binding peptides and peptide-based hair reagents for personal care” (Affinergy Inc., priority 2007, dated 2012).

For experiment [1], the system named is 90% gray hair. Put plainly: ELISA hair-binding activity of biotinylated peptides on hair bundles. Also on record: species or system human. The following applies: 20 μM biotinylated peptide in TBST and 1 mg/mL BSA, 1 hour at room temperature, 90% gray hair bundles, streptavidin-HRP detection; mean of at least three replicates. From the text:
Enzyme-linked immunosorbent assay (ELISA) was used to evaluate the hair-binding affinity of the biopanning selected peptide candidates (Example 1; biotinylated peptides SEQ ID NOs: 25, 27, 29, 30, and 32). The identified peptides along with a positive control peptide Gray3 (given as SEQ ID NO: 34; previously reported in co-pending U.S. patent application Ser. No. 11/251,715 corresponding to U.S. Patent Application Publication No. 2006/0073111) were synthesized using standard solid […] synthesis method (U.S. Ser. No. 11/251/715).
The resulting absorbance values, reported as the mean of at least three replicates, and the standard error of the mean (SEM) are given in Table 3.
For orientation: ELISA stands for enzyme-linked immunosorbent assay.

Experiment [2] deals with 90% gray hair. The following applies: substrate 90% gray hair; peptide concentration giving 50% of the maximum ELISA signal; calculated from Scatchard plots. The protocol: (§1) The MB50 provides an indication of the strength of the binding interaction or affinity of the components of the complex.
as §1
The hair samples were assembled in bundles consisting of 100 hairs about 1 cm long which were bundled together using narrow tape at one end. […] Peptide binding buffer consisting of various concentrations of biotinylated peptide in TBST and 1 mg/mL BSA was added to the hair bundles and incubated for 1 hour at room temperature, followed by 6 TBST washes. […] The results were plotted as A450 versus the concentration of peptide using GraphPad Prism 4.0 (GraphPad Software, Inc., San Diego, Calif.).

Consider “Gray3: positive control hair-binding peptide previously reported in U.S. Patent Application Publication No. 2006/0073111 (HDHKNQKETHQRHAA; Hair-binding peptide) [reference compound]”, for which, in the experiment with 90% gray hair [1], the “Hair A405 nm” value is recorded as 0.448.
For “VRPNLHRKAKAKPDHKQSENRKVPFYSH-GSSGK (biotin) [Aff15012]”, in the experiment with 90% gray hair [1], the “Hair A405 nm” value came to 0.873. The MB50 in the experiment on 90% gray hair [2] was 24 nM.
As for “SSEGASVASASDSVDSSYYSRKSSQKNPHHPKPPKKPTAR-GSSGK (biotin) [Aff15023]”, the “Hair A405 nm” value with 90% gray hair [1] came out at 0.66.
On to “SRKSSQKNPHHPKPPKKPTAR-GSSGK (biotin) [Aff15014]”, for which the “Hair A405 nm” value in the experiment with 90% gray hair [1] came to 0.871. In addition, in the experiment with 90% gray hair [2], the MB50 was 33 nM.
Turning to “SSNDSNVSWFHYYASGLTSSR-GSSG-SRKSSQKNPHHPKPPKKPTAR-GSSGK (biotin) [Aff15025]”, the “Hair A405 nm” value in the experiment with 90% gray hair [1] is given as 0.86.
On to “EGASVASASDSVDSSYYSR-GSSGK (biotin) [Aff15017]”, for which the “Hair A405 nm” value in the experiment on 90% gray hair [1] worked out at 0.184.
